Laboratory results reported in patent US7981886B2, “Antibiotics derivatives” (Actelion Pharmaceutical Ltd., priority 2005, dated 2011).
≈ marks a conversion by molar mass, not a printed value.

Assays:
Format in all cases: cell-based
M. catarrhalis A894 = test: MIC by microdilution (NCCLS), M. catarrhalis A894; conditions: Moraxella catarrhalis, cation-adjusted Mueller-Hinton Broth, pH 7.2-7.3
Procedure: (§1) These assays have been performed following the description given in “Methods for dilution Antimicrobial Susceptibility Tests for Bacteria that Grow Aerobically, 4th ed.; Approved standard: NCCLS Document M7-A4; National Committee for Clinical Laboratory Standards Villanova, Pa., USA, 1997”. Minimal inhibitory concentrations (MICs; mg/l) were determined in cation-adjusted Mueller-Hinton Broth (BBL) by a microdilution method following NCCLS guidelines (National Committee for Clinical Laboratory Standards. Methods for Dilution Antimicrobial Susceptibility). The pH of the test medium was 7.2-7.3.
(§2) All Examples were tested against several Gram positive and Gram negative bacteria.

E. faecium A949 = test: MIC by microdilution (NCCLS), E. faecium A949; conditions: Enterococcus faecium, cation-adjusted Mueller-Hinton Broth, pH 7.2-7.3
Procedure: as §1, §2

P. aeruginosa 27853 = test: MIC by microdilution (NCCLS), P. aeruginosa 27853; conditions: Pseudomonas aeruginosa, cation-adjusted Mueller-Hinton Broth, pH 7.2-7.3
Procedure: as §1, §2

S. pneumoniae 49619 = test: MIC by microdilution (NCCLS), S. pneumoniae 49619; conditions: Streptococcus pneumoniae, cation-adjusted Mueller-Hinton Broth, pH 7.2-7.3
Procedure: as §1, §2

S. aureus A798 = test: MIC by microdilution (NCCLS), S. aureus A798; conditions: Staphylococcus aureus, cation-adjusted Mueller-Hinton Broth, pH 7.2-7.3
Procedure: as §1, §2

E. coli 25922 = test: MIC by microdilution (NCCLS), E. coli 25922; conditions: Escherichia coli, cation-adjusted Mueller-Hinton Broth, pH 7.2-7.3
Procedure: as §1, §2

S. aureus 29213 = test: MIC by microdilution (NCCLS), S. aureus 29213; conditions: Staphylococcus aureus, cation-adjusted Mueller-Hinton Broth, pH 7.2-7.3
Procedure: as §1, §2

H influenzae A921 = test: MIC by microdilution (NCCLS), H influenzae A921; conditions: cation-adjusted Mueller-Hinton Broth, pH 7.2-7.3
Procedure: as §1, §2

E. faecalis 29212 = test: MIC by microdilution (NCCLS), E. faecalis 29212; conditions: Enterococcus faecalis, cation-adjusted Mueller-Hinton Broth, pH 7.2-7.3
Procedure: as §1, §2

Structure (SMILES): COc1cccc2sc(C(=O)[C@H]3CC[C@H](NCc4ccc5c(n4)NC(=O)CS5)CC3)nc12 [Example 23, 6-{[trans-4-(4-methoxy-benzothiazole-2-carbonyl)-cyclohexylamino]-methyl}-4H-pyrido[3,2-b][1,4]thiazin-3-one]
- MIC (M. catarrhalis A894): 0.25 µg/mL (≈ 0.533 µM)
- MIC (E. faecium A949): 8 µg/mL (≈ 17.1 µM)
- MIC (P. aeruginosa 27853): > 16 µg/mL
- MIC (S. pneumoniae 49619): 4 µg/mL (≈ 8.54 µM)
- MIC (S. aureus A798): 0.5 µg/mL (≈ 1.07 µM)
- MIC (E. coli 25922): 16 µg/mL (≈ 34.1 µM)
- MIC (S. aureus 29213): 1 µg/mL (≈ 2.13 µM)
- MIC (H influenzae A921): 8 µg/mL (≈ 17.1 µM)
- MIC (E. faecalis 29212): 8 µg/mL (≈ 17.1 µM)

Structure (SMILES): COc1cccc2sc(C(=O)[C@@H]3CC[C@@H](NCc4ccc5c(n4)NC(=O)CS5)CO3)nc12 [Example 29, (3R,6S)-6-{[6-(4-methoxy-benzothiazole-2-carbonyl)-tetrahydro-pyran-3-ylamino]-methyl}-4H-pyrido[3,2-b][1,4]thiazin-3-one]
- MIC (M. catarrhalis A894): 0.125 µg/mL (≈ 0.266 µM)
- MIC (E. faecium A949): 1 µg/mL (≈ 2.13 µM)
- MIC (P. aeruginosa 27853): > 16 µg/mL
- MIC (S. pneumoniae 49619): 4 µg/mL (≈ 8.5 µM)
- MIC (S. aureus A798): 2 µg/mL (≈ 4.25 µM)
- MIC (E. coli 25922): 16 µg/mL (≈ 34 µM)
- MIC (S. aureus 29213): 1 µg/mL (≈ 2.13 µM)
- MIC (H influenzae A921): 2 µg/mL (≈ 4.25 µM)
- MIC (E. faecalis 29212): 2 µg/mL (≈ 4.25 µM)

Structure (SMILES): COc1cccc2sc(C(=O)C3CCN(CC(=O)c4ccc5c(c4)NC(=O)CO5)CC3)nc12 [Example 34, 6-{2-[4-(4-methoxy-benzothiazole-2-carbonyl)-piperidin-1-yl]-acetyl}-4H-benzo[1,4]oxazin-3-one]
- MIC (M. catarrhalis A894): 0.25 µg/mL (≈ 0.537 µM)
- MIC (E. faecium A949): 4 µg/mL (≈ 8.59 µM)
- MIC (P. aeruginosa 27853): > 16 µg/mL
- MIC (S. pneumoniae 49619): 16 µg/mL (≈ 34.4 µM)
- MIC (S. aureus A798): 2 µg/mL (≈ 4.3 µM)
- MIC (E. coli 25922): 16 µg/mL (≈ 34.4 µM)
- MIC (S. aureus 29213): 1 µg/mL (≈ 2.15 µM)
- MIC (H influenzae A921): 2 µg/mL (≈ 4.3 µM)
- MIC (E. faecalis 29212): 16 µg/mL (≈ 34.4 µM)

Structure (SMILES): COc1cccc2sc(O[C@H]3CC[C@H](NCc4ccc5c(c4)NC(=O)CS5)CC3)nc12 [Example 28, 6-{[trans-4-(4-methoxy-benzothiazol-2-yloxy)-cyclohexylamino]-methyl}-4H-benzo[1,4]thiazin-3-one]
- MIC (M. catarrhalis A894): 0.125 µg/mL (≈ 0.274 µM)
- MIC (E. faecium A949): 16 µg/mL (≈ 35.1 µM)
- MIC (P. aeruginosa 27853): > 16 µg/mL
- MIC (S. pneumoniae 49619): 16 µg/mL (≈ 35.1 µM)
- MIC (S. aureus A798): 1 µg/mL (≈ 2.19 µM)
- MIC (E. coli 25922): 16 µg/mL (≈ 35.1 µM)
- MIC (S. aureus 29213): 8 µg/mL (≈ 17.6 µM)
- MIC (H influenzae A921): 16 µg/mL (≈ 35.1 µM)
- MIC (E. faecalis 29212): 16 µg/mL (≈ 35.1 µM)

Structure (SMILES): Cc1cccc2sc(C(=O)[C@H]3CC[C@H](NCc4ccc5c(c4)NC(=O)CS5)CC3)nc12 [Example 4, 6-{[trans-4-(4-methyl-benzothiazole-2-carbonyl)-cyclohexylamino]-methyl}-4H-benzo[1,4]thiazin-3-one]
- MIC (M. catarrhalis A894): ≤ 0.031 µg/mL
- MIC (E. faecium A949): 0.25 µg/mL (≈ 0.554 µM)
- MIC (P. aeruginosa 27853): 4 µg/mL (≈ 8.86 µM)
- MIC (S. pneumoniae 49619): 1 µg/mL (≈ 2.21 µM)
- MIC (S. aureus A798): 0.063 µg/mL (≈ 0.139 µM)
- MIC (E. coli 25922): 1 µg/mL (≈ 2.21 µM)
- MIC (S. aureus 29213): 0.125 µg/mL (≈ 0.277 µM)
- MIC (H influenzae A921): 0.25 µg/mL (≈ 0.554 µM)
- MIC (E. faecalis 29212): 0.5 µg/mL (≈ 1.11 µM)

Structure (SMILES): O=C1CSc2ccc(CNC3CCC(C(=O)c4nc5ccccc5s4)CC3)cc2N1 (stereo not drawn) [Example 1, 6-{[4-(benzothiazole-2-carbonyl)-cyclohexylamino]-methyl}-4H-benzo[1,4]thiazin-3-one]
- MIC (M. catarrhalis A894): ≤ 0.031 µg/mL
- MIC (E. faecium A949): 1 µg/mL (≈ 2.29 µM)
- MIC (P. aeruginosa 27853): 16 µg/mL (≈ 36.6 µM)
- MIC (S. pneumoniae 49619): 2 µg/mL (≈ 4.57 µM)
- MIC (S. aureus A798): 0.125 µg/mL (≈ 0.286 µM)
- MIC (E. coli 25922): 0.5 µg/mL (≈ 1.14 µM)
- MIC (S. aureus 29213): 0.25 µg/mL (≈ 0.571 µM)
- MIC (H influenzae A921): 0.063 µg/mL (≈ 0.144 µM)
- MIC (E. faecalis 29212): 0.5 µg/mL (≈ 1.14 µM)
